One assay deals with rabbit skeletal myofibrils (fast skeletal myofibrils). Briefly: Activation of fast skeletal myofibrils (PUMA assay, PK/LDH-coupled ATPase at pCa25). Type of assay: biochemical. To be noted: AC1.4 determined according to the procedure of Example 39; reported as class symbols. The method in brief:
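ATPase activity of Triton-washed rabbit skeletal myofibrils, roughly 90% fast fibres, tracked by NADH loss at 340 nm through a PK/LDH-coupled ADP-regenerating system. Calcium set to 25% of maximal activity (pCa25), in PIPES 12 mM pH 6.8 with 2 mM MgCl2 and 1 mM DTT; AC1.4 reported.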
Regarding `Fc1cccnc1C1(CNc2ccc(-c3ccc4n[nH]nc4c3)nn2)CCC1` [(6-benzotriazol-6-ylpyridazin-3-yl){[(3-fluoro(2-pyridyl))cyclobutyl]methyl}amine], the “Mean AC1.4” value is listed as “A (A=<1 uM)”. Same read-out and setting: as for `CC(C)=Cc1ccc(NCC(C)(C)c2ccc(F)cc2)nn1` [[2-(4-fluorophenyl)-2-methylpropyl][6-(2-methylprop-1-enyl)pyridazin-3-yl]amine], the entry is “B (B=1-10 uM)”; as for `CC(C)(CNc1ccc(-c2ccc(C(N)=O)nc2)nn1)c1ccc(F)cc1` [5-(6-{[2-(4-fluorophenyl)-2-methylpropyl]amino}pyridazin-3-yl)pyridine-2-carboxamide], “B (B=1-10 uM)”. Consider `CC(C)(O)c1ccc(C(C)(C)CNc2ccc(-c3ccc4[nH]nc(N)c4c3)nn2)cc1`, for which the “Mean AC1.4” value is reported as “D (D=>20 uM)”. On the same count and under the same terms, as for `COc1cccc(C(C)(C)CNc2ccc(-c3ccc4[nH]nc(N)c4c3)nn2)c1` [[6-(3-amino(1H-indazol-5-yl))pyridazin-3-yl][2-(3-methoxyphenyl)-2-methylpropyl]amine], the entry is “A (A=<1 uM)”.

The assay is the same for the next values; noted with them: median AC1.4 class, procedure of Example 39.
Regarding `NC(=O)c1csc(-c2ccc(NCC3(c4ncccc4F)CCC3)nn2)n1`, the “Mean AC1.4” value is “D (D=>20 uM)”. Still for that read-out and setting: next, `NC(=O)c1ccc(F)c(-c2ccc(NC3(c4cccc(C(N)=O)n4)CCC3)nn2)c1` [6-({[6-(3-carbamoyl-6-fluorophenyl)pyridazin-3-yl]amino}cyclobutyl)pyridine-2-carboxamide]: “D (D=>20 uM)”. As for `NC(=O)Cc1cnc(-c2ccc(NCC3(c4ncccc4F)CCC3)nn2)s1` [2-{2-[6-({[(3-fluoro-2-pyridyl)cyclobutyl]methyl}ami-no)pyridazin-3-yl]-1,3-thiazol-5-yl}acetamide], the “Mean AC1.4” value is listed as “B (B=1-10 uM)”. On the same count and under the same terms, as for `CC(C)(C)[S+]([O-])NCc1cnc(-c2ccc(NCC3(c4ncccc4F)CCC3)nn2)s1` (stereo not drawn) [N-((2-(6-((1-(3-fluoropyridin-2-yl)cyclobutyl)methylamino)pyr-idazin-3-yl)thiazol-5-yl)methyl)-2-methylpropane-2-sulfinamide], the entry is “B (B=1-10 uM)”.

The same assay, now with this note: median AC1.4 reported as class; procedure of Example 39.
Turning to `O=C(NCc1nccs1)c1ccc(NCC2(c3ncccc3F)CCC2)nn1` [[6-({[(3-fluoro(2-pyridyl))cyclobutyl]methyl}ami-no)pyridazin-3-yl]-N-(1,3-thiazol-2-ylmethyl)carboxamide], the “Mean AC1.4” value is “D (D=>20 uM)”. Same read-out and setting: next, `NC(=O)Cc1cnc(-c2ccc(NC[C@]3(c4ncccc4Cl)C[C@H](F)C3)nn2)s1` [2-{2-[6-({[1-(3-chloro(2-pyridyl))-3-fluorocyclobutyl]methyl}ami-no)pyridazin-3-yl]-1,3-thiazol-5-yl}acetamide]: “B (B=1-10 uM)”. The same measure, in the same setting: next, `NC(=O)c1ccc(F)c(-c2ccc(NCC3(c4ncccc4F)CCC3)nn2)c1O` [4-fluoro-3-[6-({[(3-fluoro(2-pyridyl))cyclobutyl]methyl}ami-no)pyridazin-3-yl]-2-hydroxybenzamide]: “A (A=<1 uM)”; `CCOC(=O)Cc1csc(NC(=O)c2ccc(NCC3(c4ncccc4F)CCC3)nn2)n1` [ethyl 2-(2-{[6-({[(3-fluoro-2-pyridyl)cyclobutyl]methyl}ami-no)pyridazin-3-yl]carbonylamino}-1,3-thiazol-4-yl)acetate]: “A (A=<1 uM)”. As to `O=C1CCC(CNC(=O)c2ccc(NCC3(c4ncccc4F)CCC3)nn2)N1` (stereo not drawn) [[6-({[(3-fluoro(2-pyridyl))cyclobutyl]methyl}ami-no)pyridazin-3-yl]-N-[(5-oxopyrrolidin-2-yl)methyl]carboxamide], the “Mean AC1.4” value is listed as “D (D=>20 uM)”. Same read-out and setting: next, `O=C(NCc1ccccn1)c1ccc(NCC2(c3ncccc3F)CCC2)nn1` [[6-({[(3-fluoro(2-pyridyl))cyclobutyl]methyl}ami-no)pyridazin-3-yl]-N-(2-pyridylmethyl)carboxamide]: “D (D=>20 uM)”.

Source of the values: patent US10076519B2 (CYTOKINETICS, INC., priority 2010, dated 2018).
